Test results from publication PMC9841576, “Characterisation of C101248: A novel selective THIK-1 channel inhibitor for the modulation of microglial NLRP3-inflammasome” (Neuropharmacology, 2023).

Experiments:
Cannabinoid CB2 = Cannabinoid CB2 (Homo sapiens, UniProt P34972); test: Promiscuity screening panel, radiometric binding; details: read-out: % inhibition at 10 µM (n=2)
Procedure: (§1) C101248 was further profiled in a promiscuity screening panel, using radiometric binding assays, against a selection of 18 diverse targets at 10 μM (Supplementary Table 2).
(§2) Supplementary Table 2: Promiscuity screening panel data for C101248. Compound was screened at 10 µM, in duplicate, using radiometric binding assays

Sodium Channel, Site 2 = test: Promiscuity screening panel, radiometric binding; details: Site 2, Rat
Procedure: as §1, §2

Muscarinic M1 = Muscarinic M1 (Homo sapiens, UniProt P11229); test: Promiscuity screening panel, radiometric binding; details: read-out: % inhibition at 10 µM (n=2)
Procedure: as §1, §2

[1] = system: Calcium Channel L-Type, Benzothiazepine; test: Promiscuity screening panel, radiometric binding; details: Rat
Procedure: as §1, §2

Adrenergic β2 = Adrenergic β2 (Homo sapiens, UniProt P07550); test: Promiscuity screening panel, radiometric binding; details: read-out: % inhibition at 10 µM (n=2)
Procedure: as §1, §2

[2] = target: Transporter, Norepinephrine (NET) (Homo sapiens, UniProt P23975); test: Promiscuity screening panel, radiometric binding; details: read-out: % inhibition at 10 µM (n=2)
Procedure: as §1, §2

Androgen (Testosterone) = Androgen (Testosterone) (Homo sapiens, UniProt P10275); test: Promiscuity screening panel, radiometric binding; details: read-out: % inhibition at 10 µM (n=2)
Procedure: as §1, §2

Opiate μ (OP3, MOP) = Opiate μ (OP3, MOP) (Homo sapiens, UniProt P35372); test: Promiscuity screening panel, radiometric binding; details: read-out: % inhibition at 10 µM (n=2)
Procedure: as §1, §2

[3] = target: Transporter, Serotonin (5-Hydroxytryptamine) (SERT) (Homo sapiens, UniProt P31645); test: Promiscuity screening panel, radiometric binding; details: read-out: % inhibition at 10 µM (n=2)
Procedure: as §1, §2

TWIK-2 = target: T1, TWIK-2 (Homo sapiens, UniProt Q9Y257); test: FLIPR thallium influx assay, HEK-hTWIK-2 cells; format: cell-based; details: HEK-hTWIK-2, at 30 μM, compared to TPA controls; read-out: inhibition of constitutive activity
T1 construct: expressed in transfected cells
Procedure: HEK-293 cells were transfected with human THIK-1, TREK-1, TWIK-2, or mouse THIK-1 cDNA cloned into pcDNA3.1, using either Fugene HD transfection reagent (Promega) or electroporation (MaxCyte STX instrument). Cells stably expressing the relevant genes were selected based on resistance to 500 μg/ml geneticin (Gibco). For human THIK-1 and TWIK-2 expressing cells, monoclonal lines were isolated by limited dilution cloning; mouse THIK-1 and human TREK-1 expressing cells were maintained as polyclonal pools. The HEK-293 pools and monoclones stably expressing the relevant genes were maintained in DMEM (Life Technologies), supplemented with 10% FCIII (HyClone, Fetal clone III) and 500 μg/ml geneticin. A CHO-Kv2.1 cell line was purchased from Millipore (accession NM_004975) and maintained in F12 (Life Technologies), supplemented with 10% FCSIII (Thermo Scientific) and 500 μg/ml geneticin (Life Technologies). […]
A fluorescence-based thallium influx assay (Molecular Devices potassium assay kit) was used to monitor channel activity. […] Using a fluorescent imaging plate reader (FLIPR) tetra plate reader, 15 μl thallium stimulus solution was added to the cell plate and the fluorescence signal recorded every second for 1 min (excitation: 470–495 nm, emission: 515–575 nm).

T1 sequence (Q9Y257 whole entry): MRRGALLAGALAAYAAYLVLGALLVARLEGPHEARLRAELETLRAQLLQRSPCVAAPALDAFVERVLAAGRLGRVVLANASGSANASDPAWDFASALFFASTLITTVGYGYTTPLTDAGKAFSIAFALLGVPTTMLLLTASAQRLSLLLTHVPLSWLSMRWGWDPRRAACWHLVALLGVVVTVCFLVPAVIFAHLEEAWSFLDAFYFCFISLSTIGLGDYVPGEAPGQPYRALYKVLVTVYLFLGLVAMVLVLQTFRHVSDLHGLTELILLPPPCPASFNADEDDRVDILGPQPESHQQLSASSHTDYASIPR
Sequence of Muscarinic M1 (P11229 whole entry): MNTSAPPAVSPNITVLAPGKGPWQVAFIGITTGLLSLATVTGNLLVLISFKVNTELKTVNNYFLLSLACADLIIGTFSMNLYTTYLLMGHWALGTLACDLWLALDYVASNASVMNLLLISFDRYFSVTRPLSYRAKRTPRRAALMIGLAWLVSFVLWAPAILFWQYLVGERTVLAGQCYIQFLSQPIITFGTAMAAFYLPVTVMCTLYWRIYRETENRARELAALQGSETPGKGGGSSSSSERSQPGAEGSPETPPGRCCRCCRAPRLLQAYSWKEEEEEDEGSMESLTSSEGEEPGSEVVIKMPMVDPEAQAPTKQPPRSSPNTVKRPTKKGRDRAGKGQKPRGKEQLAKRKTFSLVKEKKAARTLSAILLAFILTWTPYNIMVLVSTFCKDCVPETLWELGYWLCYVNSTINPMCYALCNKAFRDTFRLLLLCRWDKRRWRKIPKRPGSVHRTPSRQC
Sequence of Transporter, Serotonin (5-Hydroxytryptamine) (SERT) (P31645 whole entry): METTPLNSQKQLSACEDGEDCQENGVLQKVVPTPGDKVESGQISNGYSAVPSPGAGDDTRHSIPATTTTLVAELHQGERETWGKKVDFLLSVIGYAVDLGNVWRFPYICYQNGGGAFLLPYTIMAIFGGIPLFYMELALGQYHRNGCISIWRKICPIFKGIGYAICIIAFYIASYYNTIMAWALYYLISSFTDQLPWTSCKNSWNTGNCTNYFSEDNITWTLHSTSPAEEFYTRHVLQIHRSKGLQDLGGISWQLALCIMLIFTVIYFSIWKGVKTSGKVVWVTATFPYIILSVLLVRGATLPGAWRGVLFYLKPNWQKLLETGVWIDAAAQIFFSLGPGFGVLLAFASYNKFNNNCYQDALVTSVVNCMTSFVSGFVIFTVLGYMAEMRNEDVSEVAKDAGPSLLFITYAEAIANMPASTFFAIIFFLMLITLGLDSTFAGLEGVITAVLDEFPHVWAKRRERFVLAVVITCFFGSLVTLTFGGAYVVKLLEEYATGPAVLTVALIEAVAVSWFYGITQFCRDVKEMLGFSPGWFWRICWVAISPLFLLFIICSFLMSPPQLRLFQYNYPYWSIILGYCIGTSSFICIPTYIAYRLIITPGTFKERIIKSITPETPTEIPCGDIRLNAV
Sequence of Androgen (Testosterone) (P10275 whole entry): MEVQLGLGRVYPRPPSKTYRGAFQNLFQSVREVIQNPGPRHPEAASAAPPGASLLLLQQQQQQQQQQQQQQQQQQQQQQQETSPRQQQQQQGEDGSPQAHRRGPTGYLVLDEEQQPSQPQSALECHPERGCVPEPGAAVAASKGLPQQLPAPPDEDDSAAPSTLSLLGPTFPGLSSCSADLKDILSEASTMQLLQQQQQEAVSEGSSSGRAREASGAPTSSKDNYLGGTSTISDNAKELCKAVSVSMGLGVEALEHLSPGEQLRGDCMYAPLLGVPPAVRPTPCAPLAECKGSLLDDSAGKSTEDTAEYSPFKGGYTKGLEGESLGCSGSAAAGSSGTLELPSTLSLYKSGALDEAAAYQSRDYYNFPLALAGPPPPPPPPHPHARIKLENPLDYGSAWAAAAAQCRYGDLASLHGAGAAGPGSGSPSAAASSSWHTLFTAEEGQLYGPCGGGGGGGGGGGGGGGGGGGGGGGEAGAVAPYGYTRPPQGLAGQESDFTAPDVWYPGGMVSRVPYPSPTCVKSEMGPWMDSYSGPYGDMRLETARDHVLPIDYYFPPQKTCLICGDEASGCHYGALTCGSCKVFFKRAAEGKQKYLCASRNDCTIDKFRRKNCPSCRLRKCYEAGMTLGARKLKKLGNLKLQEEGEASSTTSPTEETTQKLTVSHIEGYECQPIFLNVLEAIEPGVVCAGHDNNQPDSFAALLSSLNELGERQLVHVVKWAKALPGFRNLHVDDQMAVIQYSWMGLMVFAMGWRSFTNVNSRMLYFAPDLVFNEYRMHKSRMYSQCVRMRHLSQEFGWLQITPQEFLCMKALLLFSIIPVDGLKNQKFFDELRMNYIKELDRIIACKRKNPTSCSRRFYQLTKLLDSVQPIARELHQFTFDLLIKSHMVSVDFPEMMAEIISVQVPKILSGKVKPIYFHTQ
Sequence of Cannabinoid CB2 (P34972 whole entry): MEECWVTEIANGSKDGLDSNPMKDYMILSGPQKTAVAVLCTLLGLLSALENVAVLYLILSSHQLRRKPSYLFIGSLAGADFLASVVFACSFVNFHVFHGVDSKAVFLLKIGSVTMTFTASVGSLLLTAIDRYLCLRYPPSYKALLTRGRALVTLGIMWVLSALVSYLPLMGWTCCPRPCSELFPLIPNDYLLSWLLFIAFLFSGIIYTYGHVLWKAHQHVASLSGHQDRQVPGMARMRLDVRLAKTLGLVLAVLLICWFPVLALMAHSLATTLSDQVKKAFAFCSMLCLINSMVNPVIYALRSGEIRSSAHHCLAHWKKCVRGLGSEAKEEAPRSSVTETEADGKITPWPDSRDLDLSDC
Sequence of Adrenergic β2 (P07550 whole entry): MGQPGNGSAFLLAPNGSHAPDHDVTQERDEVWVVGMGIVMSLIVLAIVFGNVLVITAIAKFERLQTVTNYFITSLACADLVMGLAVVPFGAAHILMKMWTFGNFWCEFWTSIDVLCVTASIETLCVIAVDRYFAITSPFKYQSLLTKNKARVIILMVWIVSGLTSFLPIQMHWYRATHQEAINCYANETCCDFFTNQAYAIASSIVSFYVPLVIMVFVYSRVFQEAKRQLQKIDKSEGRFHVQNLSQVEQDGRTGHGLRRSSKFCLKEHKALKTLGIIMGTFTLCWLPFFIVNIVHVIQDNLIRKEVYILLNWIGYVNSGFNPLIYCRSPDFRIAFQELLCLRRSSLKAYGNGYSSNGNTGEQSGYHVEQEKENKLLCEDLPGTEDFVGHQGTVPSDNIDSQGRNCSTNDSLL
Sequence of Transporter, Norepinephrine (NET) (P23975 whole entry): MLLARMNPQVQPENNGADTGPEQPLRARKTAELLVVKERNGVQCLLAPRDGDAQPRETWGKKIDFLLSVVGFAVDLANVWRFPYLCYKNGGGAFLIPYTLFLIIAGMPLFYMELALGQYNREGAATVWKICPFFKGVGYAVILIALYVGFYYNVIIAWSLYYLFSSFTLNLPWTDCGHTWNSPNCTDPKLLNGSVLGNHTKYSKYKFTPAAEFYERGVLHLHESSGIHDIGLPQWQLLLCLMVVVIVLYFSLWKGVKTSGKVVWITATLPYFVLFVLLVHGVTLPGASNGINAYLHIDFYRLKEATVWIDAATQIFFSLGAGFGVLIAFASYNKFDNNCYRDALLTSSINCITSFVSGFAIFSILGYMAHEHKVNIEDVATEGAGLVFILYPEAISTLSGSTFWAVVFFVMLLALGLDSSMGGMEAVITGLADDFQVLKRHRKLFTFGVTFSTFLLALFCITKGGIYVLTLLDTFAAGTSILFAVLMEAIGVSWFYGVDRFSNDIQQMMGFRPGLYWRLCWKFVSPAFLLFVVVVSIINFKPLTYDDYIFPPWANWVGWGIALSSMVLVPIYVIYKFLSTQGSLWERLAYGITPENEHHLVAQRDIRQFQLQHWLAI
Sequence of Opiate μ (OP3, MOP) (P35372 whole entry): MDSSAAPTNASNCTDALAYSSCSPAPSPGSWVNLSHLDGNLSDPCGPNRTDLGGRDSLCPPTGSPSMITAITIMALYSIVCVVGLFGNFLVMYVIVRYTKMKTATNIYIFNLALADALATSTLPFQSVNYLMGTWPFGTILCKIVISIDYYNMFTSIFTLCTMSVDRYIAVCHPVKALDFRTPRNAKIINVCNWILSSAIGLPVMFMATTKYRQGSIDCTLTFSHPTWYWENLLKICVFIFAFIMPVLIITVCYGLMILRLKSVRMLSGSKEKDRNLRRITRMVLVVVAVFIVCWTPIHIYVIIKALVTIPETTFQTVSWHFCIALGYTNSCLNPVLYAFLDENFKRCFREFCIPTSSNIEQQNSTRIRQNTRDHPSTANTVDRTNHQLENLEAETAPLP

- inhibition at 10 µM (Cannabinoid CB2): 0%
- % inhibition at 10 µM (n=2) (Sodium Channel, Site 2): 2%
- inhibition at 10 µM (Muscarinic M1): -3%
- % inhibition at 10 µM (n=2) [1]: 3%
- inhibition at 10 µM (Adrenergic β2): 15%
- inhibition at 10 µM [2]: 23%
- inhibition at 10 µM (Androgen (Testosterone)): 6%
- inhibition at 10 µM (Opiate μ (OP3, MOP)): -9%
- inhibition at 10 µM [3]: -7%
- inhibition at 30 µM (TWIK-2): 7%
Structure (SMILES): Nc1nonc1-c1nc2ccccc2n1Cc1ccncc1 [C101248]
